Results: US20230133251A1, “ADMINISTRATION OF mTOR INHIBITORS INTO THE CENTRAL NERVOUS SYSTEM” (priority 2020, published 2023)

What was measured:
HeLa cells = assay: MTT proliferation assay, activity of stored everolimus samples; format: cell-based; conditions: for day of drastic decrease in anti-proliferative activity: tested at 5 nM
Procedure: (§1) Both HeLa cells (cervical cancer cell line) and SH-SY5Y cells (neuroblastoma cell line) were obtained from the American Type Culture Collection (Manassas, Va., USA) and cultured in Dulbecco's Modified Eagle's medium (DMEM with L-glutamine) supplemented with 10% (v/v) heat-inactivated foetal bovine serum (FBS), 100 U of penicillin, 100 U of streptomycin in a 5% CO2 humidified incubator at 37° C. Cell viability was verified with the standard Trypan Blue method.
(§2) The activity of everolimus in organic solution and in the micelles was determined by evaluating cell proliferation after the treatment. Briefly, the HeLa and SH-SY5Y cells were seeded in a 96-well plate at a concentration of 3000 cells/well and 6000 cells/well, respectively, and were maintained in the culture medium (100 μl) for 24 hours. After incubation at 37, 25 and 4° C. for 7, 14, 35, 50 and 77 days, the samples were suspended in the cell culture medium at a final concentration of 5 nM. Untreated cells, cells treated with a 10% v/v DMSO/saline solution (Veh) and empty micelles in saline solution, both diluted in a manner equivalent to the drug, were analysed as controls. A freshly prepared everolimus solution was used as the reference standard. Cell proliferation was evaluated using the 3-[4,5-dimethylthiazol-2-yl]-2,5-diphenyltetrazolium (MTT) assay (Sigma-Aldrich) according to the manufacturer's manual. The cells were mixed with 10 μl of MTT (0.5 mg/ml) and kept in a humidified incubator at 37° C. for 4 hours. Subsequently, 100 μl of a solubilisation solution (10% SDS with 0.01 N HCl) were added to each well. Formazan crystal solubilisation was carried out overnight in an incubator a 37° C. The next day, cell proliferation was evaluated by means of spectrophotometric readings taken with a Beckman Coulter DTX 880 multimode detector (Beckman Coulter Inc., Brea, Calif., USA) using a line at 589 nm and reference at 650 nm.
(§3) In order to correlate the stability of everolimus with the preservation of activity, samples incubated under the same conditions as in the stability study were dosed in HeLa and SH-SY5Y cells at established points in time. For this test the cell lines were seeded and maintained for 24 hours at 37° C. prior to treatment. […] The activity of the solution, by contrast, began to wane at 35 days, confirming a prolonged effect of inhibition of the micelles on cell proliferation. […] In order to better quantify the differences among the various samples in terms of the residual activity of everolimus, the residual anti-proliferative activity was calculated and is shown in FIGS. 3A and 3B.

SH-SY5Y cells = assay: as above; format: cell-based; conditions: for day of drastic decrease in anti-proliferative activity: tested at 5 nM
Procedure: as §1, §2, §3

[1] = Evaluation of stability by HPLC analysis of everolimus samples stored at 37, 25 and 4° C.; format: physicochemical
Procedure: Everolimus (Selleck Chemicals, Aurogene, Rome, Italy) was dissolved in DMSO (VWR, Milan, Italy) at a concentration of 1 mg/ml. The everolimus solution was subsequently diluted in 10% v/v DMSO/saline solution until obtaining a final concentration of 10 μg/ml. The resulting solution was then incubated at 4, 25 and 37° C.
Carefully weighed amounts of everolimus and distearoylphosphoethanolam ine-polyethylene glycol 2000 (DSPE-PEG2000, Lipoid, Switzerland) were dissolved in 3 ml of chloroform (Sigma-Aldrich, Milan, Italy) in a 50 ml flask. The solvent was removed by light evaporation at room temperature under a flow of nitrogen and vacuum dried for 1 hour to eliminate residual traces. The thin film obtained was reconstituted in an exact volume (3 mL) of aqueous medium. After complete reconstitution a clear micellar dispersion was obtained. The dispersion was then incubated at 4, 25 and 37° C.
The drug was quantified using the HPLC method. Briefly, the instrument used is a Portlab STAYER HPLC system equipped with a UV detector, a parallel pump and Triathlon autosampler (Portlab, Rome, Italy). The conditions used are the following: isocratic mode with acetonitrile:water (60:40, v/v) eluted at 0.8 ml/min and a Zorbax C8 column, 4.6 mm ID×250 mm, 5 μm (Agilent, Milan, Italy) equilibrated at 55° C. UV detection was performed at 278 nm. A calibration curve was constructed in the concentration interval of 0.62-10 μg/mL (r^2=0.9992).
The samples of solution were injected directly (injection volume 15 μL), whereas the micellar suspension was diluted 200 times in DMSO before being subjected to analysis. In order to reduce the carryover effects and an excessive accumulation of lipids in the column, samples of solution and micelles were injected alternately. The column was periodically washed with chloroform and methanol to avoid the accumulation of lipids and impairment of performance. All measurements were performed in triplicate and the results were expressed as the mean±D.S.

- day by which everolimus had decayed (HPLC) ([1]; stored at 4° C.): ≤ 50 days
- day by which everolimus had decayed (HPLC) ([1]; stored at 25° C.): ≤ 35 days
- day by which everolimus had fallen to zero / decayed (HPLC) ([1]; stored at 37° C.): ≤ 14 days
SMILES: CO[C@H]1C[C@@H]2CC[C@@H](C)[C@@](O)(O2)C(=O)C(=O)N2CCCC[C@H]2C(=O)O[C@H]([C@H](C)C[C@@H]2CC[C@@H](OCCO)[C@H](OC)C2)CC(=O)[C@H](C)/C=C(\C)[C@@H](O)[C@@H](OC)C(=O)[C@H](C)C[C@H](C)/C=C/C=C/C=C/1C [solution, Everolimus]
- day at which activity began to wane (HeLa cells; 5 nM): 35 days
- day of drastic decrease in anti-proliferative activity (HeLa cells; sample stored at 4° C.): 50 days
- day of drastic decrease in anti-proliferative activity (HeLa cells; sample stored at 25° C.): 35 days
- day of drastic decrease in anti-proliferative activity (HeLa cells; sample stored at 37° C.): 14 days
- day at which activity began to wane (SH-SY5Y cells; 5 nM): 35 days
- day of drastic decrease in anti-proliferative activity (SH-SY5Y cells; sample stored at 4° C.): 50 days
- day of drastic decrease in anti-proliferative activity (SH-SY5Y cells; sample stored at 25° C.): 35 days
- day of drastic decrease in anti-proliferative activity (SH-SY5Y cells; sample stored at 37° C.): 14 days
